From patent publication US8637681B2, “Pyrrolyl substituted dihydroindol-2-one derivatives, preparation methods and uses thereof” (Qilu Pharmaceutical Co., Ltd., priority 2010, dated 2014)
Several values for one entry are separate records, joined by “and”; a condition that tells them apart may be missing. Equal entries are not always repeated.

Tests used:
[1] = system: arterial ring angiogenesis in rats; assay: Inhibitory actions on arterial ring angiogenesis in rats; type: cell-based; conditions: Rattus norvegicus, area covered by micrangiums vs control well, read-out: Inhibitory rate (%); for inhibition at 0.2 µg/mL: 0.2 μg/ml; for inhibition at 1 µg/mL: 1 μg/ml; for inhibition at 5 µg/mL: 5 μg/ml
Method in brief: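 Rat thoracic aorta cut into 1 mm rings, embedded in Matrigel and cultured at 37 °C with compound; medium and drug renewed every 3 days. Microvessel sprouting area imaged by microscopy; inhibition (%) = (control area − drug area)/control area × 100.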

[2] = Cytotoxicity test (SRB), A549; type: cell-based; conditions: human, A549 non-small cell lung cancer cells
Method in brief: (§1)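 Cells seeded at 4000/well in DMEM with 10% FBS, adhered overnight, then treated 72 h at 37° C, 5% CO2 with compound (final DMSO 0.25%). TCA-fixed and stained with SRB, A540 read. IC50 (μM) calculated by Logit method.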

[3] = Cytotoxicity test (SRB), Hela; type: cell-based; conditions: human, Hela cervical cancer cells
Method in brief: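 A549, Hela and A431 cells seeded at 4000/well, adhered overnight, then exposed to compound dilutions (final DMSO 0.25%) for 72 h at 37° C., 5% CO2. SRB read-out: absorbance at 540 nm; IC50 (μM) calculated by Logit method.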

[4] = Cytotoxicity test (SRB), A431; type: cell-based; conditions: human, A431 skin cancer cells
Method in brief: as §1

[5] = system: human colon cancer HT 29 transplanted tumor; assay: Nude mice transplanted tumor test; type: in vivo, female Balb/cA nude mice; design: key to d21 Vave ± SD (average tumor volume): tumor volume TV = ½×a×b² (a, b = major, minor diameter), in mm³; conditions: for Dead animal number: dead/total animals; for inhibition in vivo at 80 mg/kg: Mus musculus, HT-29, po, 504 h, (1−T/C)×100%, read-out: Tumor inhibition rate d21 (%); for inhibition in vivo at 80 mg/kg / d21 Wave ± SD (average bodyweight of nude mice) / d21 Vave ± SD (average tumor volume) / d21 RTV ± SD (relative tumor volume): d21; for d0 Wave ± SD (average bodyweight of nude mice): d0, at grouping before administration (baseline); for d21 Vave ± SD (average tumor volume): HT 29 in nude mice; for d21 RTV ± SD (relative tumor volume): RTV=Vt/V0
Method in brief: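 Female Balb/cA nude mice bearing HT 29 colon tumour fragments in the right axilla, grouped at about 120 mm^3, received 80 mg/kg intragastrically daily for 20 days; vehicle was water with 0.1% Tween 80. Tumour volume (½×a×b^2) measured 2-3 times weekly, expressed as relative tumour volume Vt/V0.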

[6] = system: three kinds of tumor cells (A549, Hela, A431); assay: Cytotoxicity test, summary over the three tumor cell lines; type: cell-based, human; conditions: compared with positive control Sunitinib
Description: Cytotoxicity of the compounds of the present invention was tested with human non-small cell lung cancer cells A549, human cervical cancer Hela cells, human skin cancer cells A431. The test was performed by referring to the method described by Rusnak et al (Rusnak D. W., et al., Cell Prolif., 2007, 40, 580-94).
In Dulbecco's Modified Eagle Medium (DMEM) comprising 10% fetal bovine serum, 2 mM glutamine and non-essential amino acids, cells were cultured at 37° C. in 5% CO2 cell incubator. Trypsin/ethylenediamine tetraacetic acid (EDTA) were used to harvest cells in cell culture bottle. The cells were added to a 96-well cell culture plate, 4000/well (0.1 ml medium), adhering wall overnight, 0.1 ml of the diluted solution of the compounds to be tested was added, the final concentration of DMSO was 0.25%. The cell culture plate was incubated at 37° C., 5% CO2 conditions for 72 h. The change of cellular morphology was observed under microscope, and then 50 μl of 50% (mass/volume) trichloroacetic acid (TCA) was added to each well to fix cells. The final concentration of TCA was 10%. It stood for 5 min, than was placed in 4° C. refrigerator for 1 h, the wells of the culture plate were washed with deionized water for 5 times to remove TCA, drained, dried in air until no wet trace was observed. 100 μl of 0.4% (mass/volume) SRB was added to each well, stood at room temperature for 10 min. The liquid in each well was discarded, and then the wells were washed with 1% acetic acid for 5 times, dried in air, extracted with 150 μl of 10 mM Tris base (trihydroxymethylaminomethane, pH 10.5). The absorption at a wavelength of 540 nm was measured. The IC50 (μM) of the compound was calculated using Logit method.

[7] = 80 mg/kg intragastrically each day for 20 days
[8] = 80 mg/kg intragastrically each day for 20 days, in mm³ (unit assumed)

SMILES | inhibition at 0.2 µg/mL [1] [%] | inhibition at 1 µg/mL [1] [%] | inhibition at 5 µg/mL [1] [%] | IC50 at 72 h [2] [µM] | IC50 at 72 h [3] [µM] | IC50 at 72 h [4] [µM] | Dead animal number [5, 7] | inhibition in vivo at 80 mg/kg [5, 7] [%] | d0 Wave ± SD (average bodyweight of nude mice) [5] | d21 Wave ± SD (average bodyweight of nude mice) [5, 7] | d21 Vave ± SD (average tumor volume) [5, 8] | d21 RTV ± SD (relative tumor volume) [5, 7] | Cytotoxicity to tumor cells (in words) [6] | d21 Vave ± SD (average tumor volume) [5, 7] | States of mice / toxicity signs (in words) [5, 7] | Bodyweight of mice after administration (in words) ([5]; mouse, in vivo)
CCN(CC)CCC(=O)Nc1c(C)[nH]c(/C=C2\C(=O)Nc3ccc(Br)cc32)c1C [Compound 3, N-{5-[5-bromo-2-oxo-1,2-dihydro-indol-(3Z)-ylidenemethyl]-2,4-dimethyl-1H-pyrrol-3-yl}-3-(N,N-diethylamino)propionamide] | 93 | 100 | 100 | > 30 | 5.08 | > 30 | 0/6 | 86.4 | 19.3 ± 0.41 | 17.3 ± 0.56 | 120.6 ± 40.2 | 0.98 ± 0.36 | certain toxicity to some cells | – | – | –
Cc1[nH]c(/C=C2\C(=O)Nc3ccc(F)cc32)c(C)c1NC(=O)CCN(C)C [Compound 6, N-{5-[5-fluoro-2-oxo-1,2-dihydro-indol-(3Z)-ylidenemethyl]-2,4-dimethyl-1H-pyrrol-3-yl}-3-(N,N-dimethylamino)propionamide] | 92 | 100 | 100 | > 30 | 8.08 | > 30 | 0/6 | 84.7 | 18.7 ± 0.38 | 20.4 ± 0.49 | 130.7 ± 37.4 | 1.10 ± 0.38 | certain toxicity to some cells | – | – | –
C=CC(=O)Nc1c(C)[nH]c(/C=C2\C(=O)Nc3ccc(F)cc32)c1C [Compound 7, N-{5-[5-fluoro-2-oxo-1,2-dihydro-indol-(3Z)-ylidenemethyl]-2,4-dimethyl-1H-pyrrol-3-yl}-acrylamide] | 95 | 100 | 100 | > 30 | 6.78 | > 30 | 0/6 | 59.8 | 19.4 ± 0.41 | 20.9 ± 0.38 | – | 2.89 ± 1.05 | certain toxicity to some cells | 359.8 ± 45.4 | – | –
CCN(CC)CCS(=O)(=O)Nc1c(C)[nH]c(/C=C2\C(=O)Nc3ccc(F)cc32)c1C [Compound 9, N-{5-[5-fluoro-2-oxo-1,2-dihydro-indol-(3Z)-ylidenemethyl]-2,4-dimethyl-1H-pyrrol-3-yl}-2-(N,N-diethylamino)ethylsulfonamide] | 93 | 100 | 100 | > 30 | > 30 | 8.58 | 0/6 | 63 | 19.6 ± 0.25 | 21.4 ± 0.38 | – | 2.66 ± 0.69 | certain toxicity to some cells | 328.3 ± 45.4 | – | –
Cc1[nH]c(/C=C2\C(=O)Nc3ccc(F)cc32)c(C)c1NC(=O)CCN1CCOCC1 [Compound 12, N-{5-[5-fluoro-2-oxo-1,2-dihydro-indol-(3Z)-ylidenemethyl]-2,4-dimethyl-1H-pyrrol-3-yl}-3-(morpholin-4-yl)propionamide] | 94 | 100 | 100 | > 30 | 4.75 | 7.59 | 0/6 | 79.8 | 17.2 ± 0.54 | 19.1 ± 0.57 | 197.9 ± 48.1 | 1.45 ± 0.37 | certain toxicity to some cells | – | – | –
Cc1[nH]c(/C=C2\C(=O)Nc3ccc(F)cc32)c(C)c1NC(=O)CCN1CCCCC1 [Compound 13, N-{5-[5-fluoro-2-oxo-1,2-dihydro-indol-(3Z)-ylidenemethyl]-2,4-dimethyl-1H-pyrrol-3-yl}-3-(piperidin-1-yl)propionamide] | 93 | 100 | 100 | > 30 | > 30 | 8.69 | 0/6 | 71.1 | 19.1 ± 0.85 | 20.1 ± 0.88 | 253.8 ± 56.4 | 2.08 ± 0.59 | certain toxicity to some cells | – | – | –
Cc1[nH]c(/C=C2\C(=O)Nc3ccc(F)cc32)c(C)c1NC(=O)CN1CCOCC1 [Compound 19, N-{5-[5-fluoro-2-oxo-1,2-dihydro-indol-(3Z)-ylidenemethyl]-2,4-dimethyl-1H-pyrrol-3-yl}-2-(morpholin-4-yl)acetamide] | 89 | 100 | 100 | > 30 | > 30 | 7.6 | – | – | – | – | – | – | certain toxicity to some cells | – | – | –
CCN(CC)CCNC(=O)c1c(C)[nH]c(/C=C2\C(=O)Nc3ccc(F)cc32)c1C [Sunitinib, reference compound] | 95 | 100 | 100 | 11.5 | 2.03 | 1.93 | one tumor-bearing mouse died and 1/6 | 88.5 | 19.4 ± 0.44 | – | 129.6 ± 45.8 | – | – | – | yellowing skin and blood in excrement | decreased significantly
